# Source: paper PMC11222147, “Host defence peptide plectasin targets bacterial cell wall precursor lipid II by a calcium-sensitive supramolecular mechanism” (Nature Microbiology, 2024)
# Like-named read-outs stand apart in the source and are kept apart here. Where a SMILES comes first, the peptide text is derived from it. Bridges are numbered along the chain shown (N, C = ends). Where no end group is shown, it is not given here.
# Columns and labels:
# S. pneumoniae ATCC6305 = test: MIC assays under standard conditions; assay type: cell-based, Streptococcus pneumoniae; settings: Supplementary Table 1, cation-adjusted MHB + 5% lysed horse blood, 5% CO2, 20–24 h
# Method: (§1) Plectasin and analogues were serially diluted in cation-adjusted Mueller–Hinton broth (MHB) in round-bottom polypropylene 96-well plates (50 µl per well). Selected bacterial strains were grown from glycerol stocks on blood agar plates. Individual colonies were inoculated in TSB and incubated at 37 °C while shaking until OD600 reached 0.5. Bacterial suspensions were then diluted 100 times in cation-adjusted MHB and distributed (50 μl per well) over the microplate containing the diluted plectasin solutions. Plates were covered by a gas-permeable adhesive membrane and incubated at 37 °C while shaking. MICs were determined by visual inspection after 16–20 h (Staphylococcus) or 20–24 h (Streptococcus). For Streptococcus strains, the broth was additionally supplemented with 5% lysed horse blood, and the microplates were incubated under 5% CO2 atmosphere. In the assays, we used the following strains: S. simulans, S. pneumoniae serotype 8, S. pneumoniae ATCC6305 and Streptococcus pyogenes M3.
# S. simulans 22 = test: MIC assays under standard conditions; assay type: cell-based, Staphylococcus simulans; settings: for Minimum inhibitory concentration, S. simulans / MIC: cation-adjusted MHB, 37 °C; for MIC: Staphylococcus simulans, 22
# Method: as §1
Compound,"Minimum inhibitory concentration, S. pneumoniae ATCC6305 (S. pneumoniae ATCC6305)","Minimum inhibitory concentration, S. simulans (S. simulans 22; Supplementary Table 1, 16–20 h)",also measured
"CSCC[C@@H]1NC(=O)[C@H](CC(=O)O)NC(=O)[C@H](CC(=O)O)NC(=O)[C@H](CCC(=O)O)NC(=O)[C@H](CC(=O)O)NC(=O)[C@H](Cc2c[nH]c3ccccc23)NC(=O)[C@@H]2CCCN2C(=O)CNC(=O)[C@H](CC(N)=O)NC(=O)[C@@H](NC(=O)CNC(=O)[C@H](Cc2ccccc2)NC(=O)CN)CSSC[C@@H]2NC(=O)[C@H](Cc3ccc(O)cc3)NC(=O)CNC(=O)CNC(=O)[C@H](CCCCN)NC(=O)[C@H](Cc3ccc(O)cc3)NC(=O)CNC(=O)[C@H](CCCCN)NC(=O)[C@H](CCCCN)NC(=O)[C@H](CO)NC(=O)[C@H](CCCCN)NC(=O)[C@@H]3CSSC[C@@H](C(=O)N[C@@H](Cc4ccc(O)cc4)C(=O)O)NC(=O)[C@H](CCCCN)NC(=O)[C@H](CSSC[C@H](NC(=O)[C@H](CCC(N)=O)NC1=O)C(=O)N[C@@H](Cc1c[nH]cn1)C(=O)N[C@@H](CC(N)=O)C(=O)N[C@@H](Cc1c[nH]cn1)C(=O)N3)NC(=O)[C@H](C(C)C)NC(=O)[C@H](Cc1ccccc1)NC(=O)CNC(=O)CNC(=O)[C@H](CCCCN)NC(=O)[C@H](C)NC2=O [I22K] (H-GFGCNGPWDEDDMQCHNHCKSKKGYKGGYCAKGGFVCKCY-OH; disulfide 4-30, 15-37, 19-39 (inferred); N-terminus and C-terminus assumed)",> 50 µg/mL,> 50 µg/mL,–
"CC[C@H](C)[C@@H]1NC(=O)[C@H](CO)NC(=O)[C@H](CCCCN)NC(=O)[C@@H]2CSSC[C@@H](C(=O)N[C@@H](Cc3ccc(O)cc3)C(=O)O)NC(=O)[C@H](CCCCN)NC(=O)[C@@H]3CSSC[C@H](NC(=O)[C@H](CCC(N)=O)NC(=O)[C@H](CCSC)NC(=O)[C@H](CC(=O)O)NC(=O)[C@H](CC(=O)O)NC(=O)[C@H](CCC(=O)O)NC(=O)[C@H](CC(=O)O)NC(=O)[C@H](Cc4c[nH]c5ccccc45)NC(=O)[C@@H]4CCCN4C(=O)CNC(=O)[C@H](CC(N)=O)NC(=O)[C@@H](NC(=O)CNC(=O)[C@H](Cc4ccccc4)NC(=O)CN)CSSC[C@H](NC(=O)[C@H](Cc4ccc(O)cc4)NC(=O)CNC(=O)CNC(=O)[C@H](C)NC(=O)[C@H](Cc4ccc(O)cc4)NC(=O)CNC(=O)[C@H](CCCCN)NC1=O)C(=O)N[C@@H](C)C(=O)N[C@@H](CCCCN)C(=O)NCC(=O)NCC(=O)N[C@@H](Cc1ccccc1)C(=O)N[C@@H](C(C)C)C(=O)N3)C(=O)N[C@@H](Cc1c[nH]cn1)C(=O)N[C@@H](CC(N)=O)C(=O)N[C@@H](Cc1c[nH]cn1)C(=O)N2 [K26A] (H-GFGCNGPWDEDDMQCHNHCKSIKGYAGGYCAKGGFVCKCY-OH; disulfide 4-30, 15-37, 19-39 (inferred); N-terminus and C-terminus assumed)","3,13 μg/mL","3,13 μg/mL",reduction in activity vs plectasin (S. simulans 22; from MIC of Table 1): fivefold to tenfold
"CC[C@H](C)[C@@H]1NC(=O)[C@H](CO)NC(=O)[C@H](CCCCN)NC(=O)[C@@H]2CSSC[C@@H](C(=O)N[C@@H](Cc3ccc(O)cc3)C(=O)O)NC(=O)[C@H](CCCCN)NC(=O)[C@@H]3CSSC[C@H](NC(=O)[C@H](CCC(N)=O)NC(=O)[C@H](CCSC)NC(=O)[C@H](CC(=O)O)NC(=O)[C@H](CC(=O)O)NC(=O)[C@H](CCC(=O)O)NC(=O)[C@H](CC(=O)O)NC(=O)[C@H](Cc4c[nH]c5ccccc45)NC(=O)[C@@H]4CCCN4C(=O)CNC(=O)[C@H](CC(N)=O)NC(=O)[C@@H](NC(=O)CNC(=O)[C@H](Cc4ccccc4)NC(=O)CN)CSSC[C@H](NC(=O)[C@H](Cc4ccc(O)cc4)NC(=O)CNC(=O)CNC(=O)[C@H](CCCNC(=N)N)NC(=O)[C@H](Cc4ccc(O)cc4)NC(=O)CNC(=O)[C@H](CCCCN)NC1=O)C(=O)N[C@@H](C)C(=O)N[C@@H](CCCCN)C(=O)NCC(=O)NCC(=O)N[C@@H](Cc1ccccc1)C(=O)N[C@@H](C(C)C)C(=O)N3)C(=O)N[C@@H](Cc1c[nH]cn1)C(=O)N[C@@H](CC(N)=O)C(=O)N[C@@H](Cc1c[nH]cn1)C(=O)N2 [K26R] (H-GFGCNGPWDEDDMQCHNHCKSIKGYRGGYCAKGGFVCKCY-OH; disulfide 4-30, 15-37, 19-39 (inferred); N-terminus and C-terminus assumed)","1,56 μg/mL",≤ 0.78 µg/mL,–
"CN[C@H](CC(C)C)C(=O)N[C@H]1C(=O)N[C@@H](CC(N)=O)C(=O)N[C@H]2C(=O)N[C@H]3C(=O)N[C@H](C(=O)N[C@H](C(=O)O)c4cc(O)cc(O)c4-c4cc3ccc4O)[C@H](O)c3ccc(c(Cl)c3)Oc3cc2cc(c3O[C@@H]2O[C@H](CO)[C@@H](O)[C@H](O)[C@H]2O[C@H]2C[C@](C)(N)[C@H](O)[C@H](C)O2)Oc2ccc(cc2Cl)[C@H]1O [Vancomycin, reference compound]",–,–,"MIC (S. pneumoniae ATCC6305; Streptococcus pneumoniae, ATCC6305, read-out: Minimum inhibitory concentration, S. pneumoniae ATCC6305): < 0.78 µg/mL; MIC (S. simulans 22; Supplementary Table 1, 16–20 h, read-out: Minimum inhibitory concentration, S. simulans): 0.78 µg/mL; MIC (S. simulans 22; standard conditions, visual inspection after 16–20 h, read-out: MIC): 0.78 µg/mL"
"CC[C@H](C)[C@@H]1NC(=O)[C@H](CO)NC(=O)[C@H](CCCCN)NC(=O)[C@@H]2CSSC[C@@H](C(=O)N[C@@H](Cc3ccc(O)cc3)C(=O)O)NC(=O)[C@H](CCCCN)NC(=O)[C@@H]3CSSC[C@H](NC(=O)[C@H](CCC(N)=O)NC(=O)[C@H](CCSC)NC(=O)[C@H](CC(=O)O)NC(=O)[C@H](CC(=O)O)NC(=O)[C@H](CCC(=O)O)NC(=O)[C@H](CC(=O)O)NC(=O)[C@H](Cc4c[nH]c5ccccc45)NC(=O)[C@@H]4CCCN4C(=O)CNC(=O)[C@H](CC(N)=O)NC(=O)[C@@H](NC(=O)CNC(=O)[C@H](Cc4ccccc4)NC(=O)CN)CSSC[C@H](NC(=O)[C@H](Cc4ccc(O)cc4)NC(=O)CNC(=O)CNC(=O)[C@H](CCCCN)NC(=O)[C@H](Cc4ccccc4)NC(=O)CNC(=O)[C@H](CCCCN)NC1=O)C(=O)N[C@@H](C)C(=O)N[C@@H](CCCCN)C(=O)NCC(=O)NCC(=O)N[C@@H](Cc1ccccc1)C(=O)N[C@@H](C(C)C)C(=O)N3)C(=O)N[C@@H](Cc1c[nH]cn1)C(=O)N[C@@H](CC(N)=O)C(=O)N[C@@H](Cc1c[nH]cn1)C(=O)N2 [Y25F] (H-GFGCNGPWDEDDMQCHNHCKSIKGFKGGYCAKGGFVCKCY-OH; disulfide 4-30, 15-37, 19-39 (inferred); N-terminus and C-terminus assumed)","3,125 μg/mL","1,56 μg/mL",–
"CC[C@H](C)[C@@H]1NC(=O)[C@H](CO)NC(=O)[C@H](CCCCN)NC(=O)[C@@H]2CSSC[C@@H](C(=O)N[C@@H](Cc3ccc(O)cc3)C(=O)O)NC(=O)[C@H](CCCCN)NC(=O)[C@@H]3CSSC[C@H](NC(=O)[C@H](CCC(N)=O)NC(=O)[C@H](CCSC)NC(=O)[C@H](CC(=O)O)NC(=O)[C@H](CC(=O)O)NC(=O)[C@H](CCC(=O)O)NC(=O)[C@H](CC(=O)O)NC(=O)[C@H](Cc4c[nH]c5ccccc45)NC(=O)[C@@H]4CCCN4C(=O)CNC(=O)[C@H](CC(N)=O)NC(=O)[C@@H](NC(=O)CNC(=O)[C@H](Cc4ccccc4)NC(=O)CN)CSSC[C@H](NC(=O)[C@H](Cc4ccc(O)cc4)NC(=O)CNC(=O)CNC(=O)[C@H](CCCCN)NC(=O)[C@H](C(C)C)NC(=O)CNC(=O)[C@H](CCCCN)NC1=O)C(=O)N[C@@H](C)C(=O)N[C@@H](CCCCN)C(=O)NCC(=O)NCC(=O)N[C@@H](Cc1ccccc1)C(=O)N[C@@H](C(C)C)C(=O)N3)C(=O)N[C@@H](Cc1c[nH]cn1)C(=O)N[C@@H](CC(N)=O)C(=O)N[C@@H](Cc1c[nH]cn1)C(=O)N2 [Y25V] (H-GFGCNGPWDEDDMQCHNHCKSIKGVKGGYCAKGGFVCKCY-OH; disulfide 4-30, 15-37, 19-39 (inferred); N-terminus and C-terminus assumed)",–,"6,25 μg/mL",–
"CC[C@H](C)[C@@H]1NC(=O)[C@H](CO)NC(=O)[C@H](CCCCN)NC(=O)[C@@H]2CSSC[C@@H](C(=O)N[C@@H](Cc3ccc(O)cc3)C(=O)O)NC(=O)[C@H](CCCCN)NC(=O)[C@@H]3CSSC[C@H](NC(=O)[C@H](CCC(N)=O)NC(=O)[C@H](CCSC)NC(=O)[C@H](CC(=O)O)NC(=O)[C@H](CC(=O)O)NC(=O)[C@H](CCC(=O)O)NC(=O)[C@H](CC(=O)O)NC(=O)[C@H](Cc4c[nH]c5ccccc45)NC(=O)[C@@H]4CCCN4C(=O)CNC(=O)[C@H](CC(N)=O)NC(=O)[C@@H](NC(=O)CNC(=O)[C@H](Cc4ccccc4)NC(=O)CN)CSSC[C@H](NC(=O)[C@H](C)NC(=O)CNC(=O)CNC(=O)[C@H](CCCCN)NC(=O)[C@H](Cc4ccc(O)cc4)NC(=O)CNC(=O)[C@H](CCCCN)NC1=O)C(=O)N[C@@H](C)C(=O)N[C@@H](CCCCN)C(=O)NCC(=O)NCC(=O)N[C@@H](Cc1ccccc1)C(=O)N[C@@H](C(C)C)C(=O)N3)C(=O)N[C@@H](Cc1c[nH]cn1)C(=O)N[C@@H](CC(N)=O)C(=O)N[C@@H](Cc1c[nH]cn1)C(=O)N2 [Y29A] (H-GFGCNGPWDEDDMQCHNHCKSIKGYKGGACAKGGFVCKCY-OH; disulfide 4-30, 15-37, 19-39 (inferred); N-terminus and C-terminus assumed)",> 50 µg/mL,"12,5 μg/mL",–
"nisin (ITSISLCTPGCKTGALMGCNMKTATCHCSIHVSK; not fully specified (some residues, bridges); also: lantibiotic nisin-A (thioether rings, dehydro residues) not placed; UniProt P13068 24-57, looked up) [reference compound]",–,–,MIC towards S. simulans as quoted in Extended Data Fig. 8 (S. simulans 22; legend of the permeabilization assays): 0.075 µM
